Columns and labels:
Experiment in all cases: relative viability (nuclei count vs DMSO), 5 days (fraction); higher = more cells survive
[1] = compound: CNC(=O)c1ccccc1Sc1ccc2c(/C=C/c3ccccn3)n[nH]c2c1 [Axitinib] + Cc1nc(Nc2ncc(C(=O)Nc3c(C)cccc3Cl)s2)cc(N2CCN(CCO)CC2)n1 [Dasatinib] (partner 0.075 µM)
Summary of the method: (§1)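 Lung cancer cell lines in 1536-well plates got either a single drug or a fixed anchor-drug dose together with five library-drug doses (not always all listed) in √10 steps, by pin tool, on the day after seeding. Nuclei were counted after 5 days, and relative viability is the treated-to-vehicle ratio of nuclei counts. Values are medians of duplicate plates.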

[2] = compound: Nc1nc(Nc2ccc3c(c2)CC[C@@H](N2CCCC2)CC3)nn1-c1cc2c(nn1)-c1ccccc1CCC2 [Bemcentinib] + Nc1ncn([C@H]2C[C@H](O)[C@@H](CO)O2)c(=O)n1 [Decitabine] (partner 2 µM)
Summary of the method: as §1

[3] = compound: CNC(=O)c1ccccc1Sc1ccc2c(/C=C/c3ccccn3)n[nH]c2c1 [Axitinib] + NC(=O)Nc1cc(-c2cccc(F)c2)sc1C(=O)N[C@H]1CCCNC1 [AZD7762] (partner 0.2 µM)
Summary of the method: as §1

[4] = compound: CNC(=O)c1ccccc1Sc1ccc2c(/C=C/c3ccccn3)n[nH]c2c1 [Axitinib] + N=C(N)NC(=N)NCCc1ccccc1 [Phenformin] (partner 250 µM)
Summary of the method: as §1

Work on HCC-827 yielded a relative viability ([1]; first compound 0.005 µM) of 0.302, a relative viability ([1]; first compound 0.01581 µM) of 0.209 and a relative viability ([1]; first compound 0.05 µM) of 0.356. The relative viability ([1]; first compound 0.1581 µM) was 0.398, the relative viability ([1]; first compound 0.5 µM) was 0.274 and the relative viability ([2]; first compound 0.04 µM) was 0.34. The relative viability ([2]; first compound 0.1265 µM) was 0.347, the relative viability ([2]; first compound 0.4 µM) was 0.316 and the relative viability ([2]; first compound 1.265 µM) was 0.292. The relative viability ([2]; first compound 4 µM) was 0.332, the relative viability ([3]; first compound 0.005 µM) was 0.195 and the relative viability ([3]; first compound 0.01581 µM) was 0.129. It also gave a relative viability ([3]; first compound 0.05 µM) of 0.176, a relative viability ([3]; first compound 0.1581 µM) of 0.212 and a relative viability ([3]; first compound 0.5 µM) of 0.214. For the same cell line, the relative viability ([4]; first compound 0.005 µM) was 0.408, the relative viability ([4]; first compound 0.01581 µM) was 0.4 and the relative viability ([4]; first compound 0.05 µM) was 0.419. It also gave a relative viability ([4]; first compound 0.1581 µM) of 0.381 and a relative viability ([4]; first compound 0.5 µM) of 0.459.

Work on HOP-62 yielded a relative viability ([1]; first compound 0.005 µM) of 0.693, a relative viability ([1]; first compound 0.01581 µM) of 0.704 and a relative viability ([1]; first compound 0.05 µM) of 0.77. For the same cell line, the relative viability ([1]; first compound 0.1581 µM) was 0.684, the relative viability ([1]; first compound 0.5 µM) was 0.726 and the relative viability ([2]; first compound 0.04 µM) was 0.25. It also gave a relative viability ([2]; first compound 0.1265 µM) of 0.198, a relative viability ([2]; first compound 0.4 µM) of 0.255 and a relative viability ([2]; first compound 1.265 µM) of 0.207. For the same cell line, the relative viability ([2]; first compound 4 µM) was 0.216, the relative viability ([3]; first compound 0.005 µM) was 0.654 and the relative viability ([3]; first compound 0.01581 µM) was 0.548. The relative viability ([3]; first compound 0.05 µM) was 0.592, the relative viability ([3]; first compound 0.1581 µM) was 0.728 and the relative viability ([3]; first compound 0.5 µM) was 0.97. The relative viability ([4]; first compound 0.005 µM) was 0.73, the relative viability ([4]; first compound 0.01581 µM) was 0.63 and the relative viability ([4]; first compound 0.05 µM) was 0.742. For the same cell line, the relative viability ([4]; first compound 0.1581 µM) was 0.665 and the relative viability ([4]; first compound 0.5 µM) was 0.853.

For LC-2-ad, the relative viability ([1]; first compound 0.005 µM) was 0.526, the relative viability ([1]; first compound 0.01581 µM) was 0.572 and the relative viability ([1]; first compound 0.05 µM) was 0.425. The relative viability ([1]; first compound 0.1581 µM) was 0.546, the relative viability ([1]; first compound 0.5 µM) was 0.486 and the relative viability ([2]; first compound 0.04 µM) was 0.79. For the same cell line, the relative viability ([2]; first compound 0.1265 µM) was 0.724, the relative viability ([2]; first compound 0.4 µM) was 0.824 and the relative viability ([2]; first compound 1.265 µM) was 0.817. The relative viability ([2]; first compound 4 µM) was 0.756, the relative viability ([3]; first compound 0.005 µM) was 0.845 and the relative viability ([3]; first compound 0.01581 µM) was 0.845. For the same cell line, the relative viability ([3]; first compound 0.05 µM) was 0.834, the relative viability ([3]; first compound 0.1581 µM) was 0.841 and the relative viability ([3]; first compound 0.5 µM) was 0.952. The relative viability ([4]; first compound 0.005 µM) was 0.578, the relative viability ([4]; first compound 0.01581 µM) was 0.592 and the relative viability ([4]; first compound 0.05 µM) was 0.586. For the same cell line, the relative viability ([4]; first compound 0.1581 µM) was 0.527 and the relative viability ([4]; first compound 0.5 µM) was 0.498.

Cell Line LCLC-97TM1 has a relative viability ([1]; first compound 0.005 µM) of 0.834, a relative viability ([1]; first compound 0.01581 µM) of 0.722 and a relative viability ([1]; first compound 0.05 µM) of 0.857. For the same cell line, the relative viability ([1]; first compound 0.1581 µM) was 0.753, the relative viability ([1]; first compound 0.5 µM) was 0.842 and the relative viability ([2]; first compound 0.04 µM) was 0.248. It also gave a relative viability ([2]; first compound 0.1265 µM) of 0.212, a relative viability ([2]; first compound 0.4 µM) of 0.217 and a relative viability ([2]; first compound 1.265 µM) of 0.207. It also gave a relative viability ([2]; first compound 4 µM) of 0.252, a relative viability ([3]; first compound 0.005 µM) of 0.22 and a relative viability ([3]; first compound 0.01581 µM) of 0.327. It also gave a relative viability ([3]; first compound 0.05 µM) of 0.218, a relative viability ([3]; first compound 0.1581 µM) of 0.281 and a relative viability ([3]; first compound 0.5 µM) of 0.374. It also gave a relative viability ([4]; first compound 0.005 µM) of 0.458, a relative viability ([4]; first compound 0.01581 µM) of 0.381 and a relative viability ([4]; first compound 0.05 µM) of 0.43. The relative viability ([4]; first compound 0.1581 µM) was 0.47 and the relative viability ([4]; first compound 0.5 µM) was 0.314.

For LCLC-103H, the relative viability ([1]; first compound 0.005 µM) was 0.524, the relative viability ([1]; first compound 0.01581 µM) was 0.516 and the relative viability ([1]; first compound 0.05 µM) was 0.483. For the same cell line, the relative viability ([1]; first compound 0.1581 µM) was 0.402, the relative viability ([1]; first compound 0.5 µM) was 0.364 and the relative viability ([2]; first compound 0.04 µM) was 0.739. It also gave a relative viability ([2]; first compound 0.1265 µM) of 0.735, a relative viability ([2]; first compound 0.4 µM) of 0.738 and a relative viability ([2]; first compound 1.265 µM) of 0.812. The relative viability ([2]; first compound 4 µM) was 0.764, the relative viability ([3]; first compound 0.005 µM) was 0.843 and the relative viability ([3]; first compound 0.01581 µM) was 0.752. It also gave a relative viability ([3]; first compound 0.05 µM) of 0.816, a relative viability ([3]; first compound 0.1581 µM) of 0.836 and a relative viability ([3]; first compound 0.5 µM) of 0.674. The relative viability ([4]; first compound 0.005 µM) was 0.32, the relative viability ([4]; first compound 0.01581 µM) was 0.341 and the relative viability ([4]; first compound 0.05 µM) was 0.345. For the same cell line, the relative viability ([4]; first compound 0.1581 µM) was 0.356 and the relative viability ([4]; first compound 0.5 µM) was 0.312.

Cell Line LK-2 has a relative viability ([1]; first compound 0.005 µM) of 0.333, a relative viability ([1]; first compound 0.01581 µM) of 0.305 and a relative viability ([1]; first compound 0.05 µM) of 0.343. It also gave a relative viability ([1]; first compound 0.1581 µM) of 0.282, a relative viability ([1]; first compound 0.5 µM) of 0.223 and a relative viability ([2]; first compound 0.04 µM) of 0.214. The relative viability ([2]; first compound 0.1265 µM) was 0.374, the relative viability ([2]; first compound 0.4 µM) was 0.342 and the relative viability ([2]; first compound 1.265 µM) was 0.23. For the same cell line, the relative viability ([2]; first compound 4 µM) was 0.313, the relative viability ([3]; first compound 0.005 µM) was 0.385 and the relative viability ([3]; first compound 0.01581 µM) was 0.335. For the same cell line, the relative viability ([3]; first compound 0.05 µM) was 0.279, the relative viability ([3]; first compound 0.1581 µM) was 0.447 and the relative viability ([3]; first compound 0.5 µM) was 0.307. It also gave a relative viability ([4]; first compound 0.005 µM) of 0.674, a relative viability ([4]; first compound 0.01581 µM) of 0.202 and a relative viability ([4]; first compound 0.05 µM) of 0.481. For the same cell line, the relative viability ([4]; first compound 0.1581 µM) was 0.353 and the relative viability ([4]; first compound 0.5 µM) was 0.293.

LOU-NH91 was tested, and the relative viability ([1]; first compound 0.005 µM) was 0.569, the relative viability ([1]; first compound 0.01581 µM) was 0.434 and the relative viability ([1]; first compound 0.05 µM) was 0.61. It also gave a relative viability ([1]; first compound 0.1581 µM) of 0.558, a relative viability ([1]; first compound 0.5 µM) of 0.568 and a relative viability ([2]; first compound 0.04 µM) of 0.78. It also gave a relative viability ([2]; first compound 0.1265 µM) of 0.82, a relative viability ([2]; first compound 0.4 µM) of 0.837 and a relative viability ([2]; first compound 1.265 µM) of 0.863. The relative viability ([2]; first compound 4 µM) was 0.801, the relative viability ([3]; first compound 0.005 µM) was 0.806 and the relative viability ([3]; first compound 0.01581 µM) was 0.723. It also gave a relative viability ([3]; first compound 0.05 µM) of 0.814, a relative viability ([3]; first compound 0.1581 µM) of 0.761 and a relative viability ([3]; first compound 0.5 µM) of 0.78. It also gave a relative viability ([4]; first compound 0.005 µM) of 0.763, a relative viability ([4]; first compound 0.01581 µM) of 0.523 and a relative viability ([4]; first compound 0.05 µM) of 0.875. It also gave a relative viability ([4]; first compound 0.1581 µM) of 0.684 and a relative viability ([4]; first compound 0.5 µM) of 0.695.

Cell Line NCI-H520 has a relative viability ([1]; first compound 0.005 µM) of 0.197, a relative viability ([1]; first compound 0.01581 µM) of 0.159 and a relative viability ([1]; first compound 0.05 µM) of 0.194. It also gave a relative viability ([1]; first compound 0.5 µM) of 0.192, a relative viability ([2]; first compound 0.04 µM) of 0.515 and a relative viability ([2]; first compound 0.1265 µM) of 0.593. For the same cell line, the relative viability ([2]; first compound 0.4 µM) was 0.511, the relative viability ([2]; first compound 1.265 µM) was 0.499 and the relative viability ([2]; first compound 4 µM) was 0.512. It also gave a relative viability ([4]; first compound 0.005 µM) of 0.489, a relative viability ([4]; first compound 0.01581 µM) of 0.404 and a relative viability ([4]; first compound 0.05 µM) of 0.655. It also gave a relative viability ([4]; first compound 0.1581 µM) of 0.362 and a relative viability ([4]; first compound 0.5 µM) of 0.386.
